Experimental findings from US20040030106A1, “Novel compounds and process” (priority 2000, published 2004) are described below.

Series [1] concerns P14 peptides. The experiment in a line: IgG anti-peptide ELISA after immunisation of mice with P14 peptide-BSA conjugates. Format: in vivo. Particulars: 25 μg conjugate IM with AS2 adjuvant on days 0, 14, 28, day 14 post III; for IgG anti-peptide responses (midpoint titre), individual mice: one value per mouse. The procedure: To evaluate the immunogenicity of the conjugates produced in Example 1, 10 mice per group were immunised intramuscularly (IM) on days 0, 14 and 28 with 25 μg of conjugate mixed with AS2 adjuvant (oil/water emulsion, 3D-MPL, QS21). The serologic response for the P14 peptides was analysed by ELISA on days 28 and 42 (14 post III).
(An ELISA detects its analyte on a solid surface through an enzyme-linked reagent.)

The subject of series [2] is P15 peptides. Briefly: Anti-peptide antibody response after immunisation of mice with cyclic P15-BSA conjugates. Format: in vivo. As to conditions: 10 mice per group, 25 μg conjugate IM with AS2 adjuvant on days 0, 14, 28; 14 days post III. The procedure: (§1) The P15 peptide conjugates produced in Example 1 were also used to immunise 10 mice per group,intramuscularly (IM) on days 0, 14 and 28 with 25 μg of conjugate mixed with AS2 adjuvant (oil/water emulsion, 3D-MPL, QS21). Very homogenous responses were obtained with all cyclic P15 peptides.

Series [3] deals with IgE. The experiment in a line: Anti-IgE antibody response after immunisation of mice with cyclic P15-BSA conjugates, by comparison with mAb 11. As to conditions: mAb11 equivalents, 25 μg conjugate IM with AS2 adjuvant on days 0, 14, 28, 14 days post III. Format: in vivo. The procedure: as §1
For series [4], the system named is human basophils. Briefly: Human basophil blocking assay: inhibition of Lol p I triggered histamine release. It counts as cell-based. As to conditions: human basophils from allergic donors, triggered with allergen (Lol p I). An excerpt:
The degree of inhibition of histamine release can be calculated using the formula:
% inhibition=1−(histamine release from test sample treated cells*)×100(histamine release from antigen stimulated cells*)
Values corrected for spontaneous release.

The test system of series [5] is human basophils.
Description: Blood was collected by venepuncture from 4 allergic donors into tubes containing 0.1 volumes 2.7% EDTA, pH 7.0. It is then diluted 1/2 with an equal volume of HBH medium containing 0.1% human serum albumin (HBH/HSA). The resulting cell suspension was layered over 50% volume Ficoll-Paque and centrifuged at 400 g for 30 minutes at room temperature. The peripheral blood mononuclear cell (PBMC) layer at the interface is collected and the pellet is discarded. The cells are washed once in HBH/HSA, counted, and re-suspended in HBH/HSA at a cell density of 2.0×10^6 per ml. 100 μl cell suspension are added to wells of a V-bottom 96-well plate containing 100 μl diluted test sample or vaccine induced antibody. Each test sample is tested at a range of dilutions with 6 wells for each dilution. Well contents are mixed briefly using a plate shaker, before incubation at 37° C. for 30 minutes with shaking at 120 rpm.
For each serum dilution 3 wells are triggered by addition of 10 μl Lol p I extract (final dilution 1/10000) and 3 wells have 10 μl HBH/HSA added for assessment of anaphylactogenicity. Well contents are again mixed briefly using a plate shaker, before incubation at 37° C. for a further 30 minutes with shaking at 120 rpm. Incubations are terminated by centrifugation at 500 g for 5 min. Supernatants are removed for histamine assay using a commercially available histamine EIA measuring kit (Immunotech). Control wells containing cells without test sample are routinely included to determine spontaneous and triggered release. Wells containing cells ±0.05% Igepal detergent are also included to determine total cell histarnine.
Histamine release due to test samples=% histamine release from test sample treated cells−% spontaneous histamine release.

Where “and” joins values, the source holds several entries; their conditions need not be identical. Identical values can stand only once. Bridge positions count the residues as written; N and C are the ends. Ends that are not written are not given here.

Consider “ACPEWPGSRDRCTLAG-NH2 (disulfide 2-12 (inferred)) [P14e]”, for which, in series [1], the “IgG anti-peptide responses (midpoint titre), Average” value (from here on “IgG anti-peptide responses … Average”) is 3200; the “IgG anti-peptide responses (midpoint titre), geomean” value (“IgG anti-peptide responses … geomean” for short) is listed as 3051; the “IgG anti-peptide responses (midpoint titre), individual mice” value was 3151 and 2345 and 3224 and 3051 and 2873 and 4647 and 1461 and 4227 and 3821.
Consider “Ac-CLEDGQVMDCGSK-NH2 (disulfide 1-10 (inferred)) [P15b, 325 conjugated to BSA]”, for which, in series [2], the “anti-peptide (midpoint titre), average” value worked out at 11169 and the “anti-peptide (midpoint titre), geomean” value amounted to 8385. Besides, in series [3], the “anti-IgE (μg/ml or mAB11 equivalent), average” value (“anti-IgE … average” for short) is 70 µg/mL and the “anti-IgE (μg/ml or mAB11 equivalent), geomean” value (“anti-IgE … geomean” for short) amounted to 35 µg/mL.
As to “Ac-CLEDGQVMDVDLCGGSSGGK-NH2 (disulfide 1-13 (inferred)) [P15e]”, in series [2], the “anti-peptide (midpoint titre), average” value amounted to 57432 and the “anti-peptide (midpoint titre), geomean” value was 55207. Besides, in series [3], the “anti-IgE … average” value came out at 129 µg/mL and the “anti-IgE … geomean” value was found to be 113 µg/mL. In series [4], the “histamine release blocking activity of the induced antiserum” value (“histamine release blocking activity” for short) is “inhibited histamine release”. Besides, the “anaphylactogenicity of the induced antiserum” value (from here on “anaphylactogenicity”) in series [5] is given as “without the antiserum being anaphylactogenic”.
As to “Ac-CLEDGQVMDVDLCGSK-NH2 (disulfide 1-13 (inferred)) [P15c]”, in series [2], the “anti-peptide (midpoint titre), average” value came to 66452 and the “anti-peptide (midpoint titre), geomean” value amounted to 65685. Besides, in series [3], the “anti-IgE … average” value stood at 200 µg/mL and the “anti-IgE … geomean” value amounted to 189 µg/mL. Further, the “histamine release blocking activity” value in series [4] is listed as “inhibited histamine release”. Further, in series [5], the “anaphylactogenicity” value is “without the antiserum being anaphylactogenic”.
In the case of Ac-CLEDGQVMDVDLCPREAAEGDK-NH2 [P15d], in series [2], the “anti-peptide (midpoint titre), average” value is given as 35118 and the “anti-peptide (midpoint titre), geomean” value was found to be 32801. Further, in series [3], the “anti-IgE … average” value is 174 µg/mL and the “anti-IgE … geomean” value amounted to 111 µg/mL. Also, in series [4], the “histamine release blocking activity” value is listed as “inhibited histamine release”. Moreover, in series [5], the “anaphylactogenicity” value was “without the antiserum being anaphylactogenic”.
As to “Ac-CPEWPGSRDRCGSK-NH2 (disulfide 1-11 (inferred)) [P14f]”, in series [1], the “IgG anti-peptide responses … Average” value came out at 77521; the “IgG anti-peptide responses … geomean” value came to 73541; the “IgG anti-peptide responses (midpoint titre), individual mice” value is 67086 and 101502 and 36031 and 74838 and 56496 and 51304 and 92885 and 92868 and 113041 and 89155.
Regarding “Ac-CWPGSRDRRCGSK-NH2 (disulfide 1-10 (inferred)) [P14I]”, in series [1], the “IgG anti-peptide responses … Average” value worked out at 48146; the “IgG anti-peptide responses … geomean” value is 45336; the “IgG anti-peptide responses (midpoint titre), individual mice” value is 85882 and 28989 and 39268 and 39460 and 57276 and 50834 and 54664 and 62263 and 36621 and 26202.
